PubChem BioAssay AID2060492 (Molecular Pharmacology Branch, DTP, NCI, 2025)
pIC50: −log10 of the molar value.

Test system: 695427-040-R-J1-PDC complex spheroids, viability percent T/C
Experiment: Anticancer human tumor 695427-040-R-J1-PDC patient-derived colon adenocarcinoma cell line growth inhibition [GQUAD]
Details: for pIC50: curve of first compound; for viability, T/C: stronger effect = lower value
Method in brief: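 Multi-cell-type spheroids of tumor cells with HUVEC and mesenchymal stem cells, treated with drug combinations. Concentrations descend in half-log steps from near clinical Cmax, or from 10 microM where Cmax is unknown; viability read-out.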

[1] = second compound 0.0316 µM, first compound 0.0316 µM
[2] = second compound 0.0316 µM, first compound 0.1 µM
[3] = second compound 0.0316 µM, first compound 0.316 µM
[4] = second compound 0.0316 µM, first compound 1 µM
[5] = second compound 0.0316 µM, first compound 3.16 µM
[6] = second compound 0.0316 µM, first compound 10 µM
[7] = second compound 0.1 µM, first compound 0.0316 µM
[8] = second compound 0.1 µM, first compound 0.1 µM
[9] = second compound 0.1 µM, first compound 0.316 µM
[10] = second compound 0.1 µM, first compound 1 µM
[11] = second compound 0.1 µM, first compound 3.16 µM
[12] = second compound 0.1 µM, first compound 10 µM
[13] = second compound 0.316 µM, first compound 0.0316 µM
[14] = second compound 0.316 µM, first compound 0.1 µM
[15] = second compound 0.316 µM, first compound 0.316 µM
[16] = second compound 0.316 µM, first compound 1 µM
[17] = second compound 0.316 µM, first compound 3.16 µM
[18] = second compound 0.316 µM, first compound 10 µM
[19] = second compound 1 µM, first compound 0.0316 µM
[20] = second compound 1 µM, first compound 0.1 µM
[21] = second compound 1 µM, first compound 0.316 µM
[22] = second compound 1 µM, first compound 1 µM
[23] = second compound 1 µM, first compound 3.16 µM
[24] = second compound 1 µM, first compound 10 µM
[25] = second compound 3.16 µM, first compound 0.0316 µM
[26] = second compound 3.16 µM, first compound 0.1 µM
[27] = second compound 3.16 µM, first compound 0.316 µM
[28] = second compound 3.16 µM, first compound 1 µM
[29] = second compound 3.16 µM, first compound 3.16 µM
[30] = second compound 3.16 µM, first compound 10 µM
[31] = second compound 10 µM, first compound 0.0316 µM
[32] = second compound 10 µM, first compound 0.1 µM
[33] = second compound 10 µM, first compound 0.316 µM
[34] = second compound 10 µM, first compound 1 µM
[35] = second compound 10 µM, first compound 3.16 µM
[36] = second compound 10 µM, first compound 10 µM
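Note: spheroids exposed to compounds for seven days before readout.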

Structure (SMILES): C#Cc1c(F)ccc2cc(O)cc(-c3ncc4c(N5CC6CCC(C5)N6)nc(OCC56CCCN5CC(F)C6)nc4c3F)c12 (stereo not drawn) + CN(C)c1ccc(Nc2c3ccc(NC(=O)CCN4CCCC4)cc3nc3cc(NC(=O)CCN4CCCC4)ccc23)cc1
- pIC50 (second compound 0.0316 µM): < 5.00
- pIC50 (second compound 0.1 µM): < 5.00
- pIC50 (second compound 0.316 µM): < 5.00
- pIC50 (second compound 1 µM): < 5.00
- pIC50 (second compound 3.16 µM): < 5.00
- pIC50 (second compound 10 µM): < 5.00
- viability, T/C [1]: 101%
- viability, T/C [2]: 102%
- viability, T/C [3]: 100%
- viability, T/C [4]: 98.9%
- viability, T/C [5]: 98.4%
- viability, T/C [6]: 83.5%
- viability, T/C [7]: 106%
- viability, T/C [8]: 95.4%
- viability, T/C [9]: 98%
- viability, T/C [10]: 94%
- viability, T/C [11]: 97.5%
- viability, T/C [12]: 83.3%
- viability, T/C [13]: 96.4%
- viability, T/C [14]: 106%
- viability, T/C [15]: 94.6%
- viability, T/C [16]: 89.5%
- viability, T/C [17]: 99.1%
- viability, T/C [18]: 80.6%
- viability, T/C [19]: 100%
- viability, T/C [20]: 102%
- viability, T/C [21]: 106%
- viability, T/C [22]: 101%
- viability, T/C [23]: 91.8%
- viability, T/C [24]: 77.5%
- viability, T/C [25]: 101%
- viability, T/C [26]: 91%
- viability, T/C [27]: 92.9%
- viability, T/C [28]: 87.7%
- viability, T/C [29]: 86.2%
- viability, T/C [30]: 80.7%
- viability, T/C [31]: 87.1%
- viability, T/C [32]: 91.8%
- viability, T/C [33]: 86.1%
- viability, T/C [34]: 87.4%
- viability, T/C [35]: 82.4%
- viability, T/C [36]: 62.4%

Structure (SMILES): CC(=O)O[C@H]1C(=O)[C@@]2(C)[C@H]([C@H](OC(=O)c3ccccc3)[C@]3(O)C[C@H](OC(=O)[C@H](O)[C@@H](NC(=O)c4ccccc4)c4ccccc4)C(C)=C1C3(C)C)[C@]1(OC(C)=O)CO[C@@H]1C[C@@H]2O + CN(C)c1ccc(Nc2c3ccc(NC(=O)CCN4CCCC4)cc3nc3cc(NC(=O)CCN4CCCC4)ccc23)cc1
- pIC50 (second compound 0.0316 µM): < 5.00
- pIC50 (second compound 0.1 µM): < 5.00
- pIC50 (second compound 0.316 µM): < 5.00
- pIC50 (second compound 1 µM): < 5.00
- pIC50 (second compound 3.16 µM): < 5.00
- pIC50 (second compound 10 µM): < 5.00
- viability, T/C [1]: 98.5%
- viability, T/C [2]: 90.7%
- viability, T/C [3]: 90.4%
- viability, T/C [4]: 85.6%
- viability, T/C [5]: 84%
- viability, T/C [6]: 73.2%
- viability, T/C [7]: 98.5%
- viability, T/C [8]: 87.8%
- viability, T/C [9]: 89.3%
- viability, T/C [10]: 79.8%
- viability, T/C [11]: 79.5%
- viability, T/C [12]: 68.7%
- viability, T/C [13]: 106%
- viability, T/C [14]: 96%
- viability, T/C [15]: 85.5%
- viability, T/C [16]: 84.5%
- viability, T/C [17]: 82.6%
- viability, T/C [18]: 70.1%
- viability, T/C [19]: 89.7%
- viability, T/C [20]: 88.4%
- viability, T/C [21]: 89.8%
- viability, T/C [22]: 85.5%
- viability, T/C [23]: 76.3%
- viability, T/C [24]: 69.8%
- viability, T/C [25]: 92.8%
- viability, T/C [26]: 96.7%
- viability, T/C [27]: 88.7%
- viability, T/C [28]: 84.3%
- viability, T/C [29]: 77.4%
- viability, T/C [30]: 66.3%
- viability, T/C [31]: 86.9%
- viability, T/C [32]: 84.8%
- viability, T/C [33]: 84.5%
- viability, T/C [34]: 75.8%
- viability, T/C [35]: 71.2%
- viability, T/C [36]: 61.9%

Structure (SMILES): CCCS(=O)(=O)Nc1ccc(F)c(C(=O)c2c[nH]c3ncc(-c4ccc(Cl)cc4)cc23)c1F + CN(C)c1ccc(Nc2c3ccc(NC(=O)CCN4CCCC4)cc3nc3cc(NC(=O)CCN4CCCC4)ccc23)cc1
- pIC50 (second compound 0.0316 µM): < 5.00
- pIC50 (second compound 0.1 µM): < 5.00
- pIC50 (second compound 0.316 µM): < 5.00
- pIC50 (second compound 1 µM): < 5.00
- pIC50 (second compound 3.16 µM): < 5.00
- pIC50 (second compound 10 µM): < 5.00
- viability, T/C [1]: 108%
- viability, T/C [2]: 99.9%
- viability, T/C [3]: 106%
- viability, T/C [4]: 106%
- viability, T/C [5]: 122%
- viability, T/C [6]: 68.1%
- viability, T/C [7]: 103%
- viability, T/C [8]: 94.5%
- viability, T/C [9]: 104%
- viability, T/C [10]: 109%
- viability, T/C [11]: 111%
- viability, T/C [12]: 65.9%
- viability, T/C [13]: 105%
- viability, T/C [14]: 108%
- viability, T/C [15]: 101%
- viability, T/C [16]: 106%
- viability, T/C [17]: 123%
- viability, T/C [18]: 68.3%
- viability, T/C [19]: 98.7%
- viability, T/C [20]: 99.3%
- viability, T/C [21]: 107%
- viability, T/C [22]: 119%
- viability, T/C [23]: 121%
- viability, T/C [24]: 64.2%
- viability, T/C [25]: 91%
- viability, T/C [26]: 103%
- viability, T/C [27]: 94.5%
- viability, T/C [28]: 100%
- viability, T/C [29]: 110%
- viability, T/C [30]: 72.4%
- viability, T/C [31]: 86.6%
- viability, T/C [32]: 89.3%
- viability, T/C [33]: 90.9%
- viability, T/C [34]: 91.2%
- viability, T/C [35]: 90%
- viability, T/C [36]: 67.5%

Structure (SMILES): O=c1[nH]cc(F)c(=O)[nH]1 + CN(C)c1ccc(Nc2c3ccc(NC(=O)CCN4CCCC4)cc3nc3cc(NC(=O)CCN4CCCC4)ccc23)cc1
- pIC50 (second compound 0.0316 µM): < 5.00
- pIC50 (second compound 0.1 µM): < 5.00
- pIC50 (second compound 0.316 µM): < 5.00
- pIC50 (second compound 1 µM): < 5.00
- pIC50 (second compound 3.16 µM): < 5.00
- pIC50 (second compound 10 µM): < 5.00
- viability, T/C [1]: 101%
- viability, T/C [2]: 90.5%
- viability, T/C [3]: 90.5%
- viability, T/C [4]: 92.6%
- viability, T/C [5]: 95.5%
- viability, T/C [6]: 97.5%
- viability, T/C [7]: 103%
- viability, T/C [8]: 90.1%
- viability, T/C [9]: 94.9%
- viability, T/C [10]: 83.8%
- viability, T/C [11]: 99.8%
- viability, T/C [12]: 91.5%
- viability, T/C [13]: 106%
- viability, T/C [14]: 100%
- viability, T/C [15]: 99.7%
- viability, T/C [16]: 92.8%
- viability, T/C [17]: 94.7%
- viability, T/C [18]: 94.5%
- viability, T/C [19]: 103%
- viability, T/C [20]: 96.9%
- viability, T/C [21]: 98%
- viability, T/C [22]: 96.9%
- viability, T/C [23]: 97.7%
- viability, T/C [24]: 92.5%
- viability, T/C [25]: 92.1%
- viability, T/C [26]: 100%
- viability, T/C [27]: 90.3%
- viability, T/C [28]: 88.3%
- viability, T/C [29]: 90.5%
- viability, T/C [30]: 91%
- viability, T/C [31]: 87.8%
- viability, T/C [32]: 92.6%
- viability, T/C [33]: 78%
- viability, T/C [34]: 82.4%
- viability, T/C [35]: 85.7%
- viability, T/C [36]: 83.4%
